Experimental data from US5763396A, “Method of treating or preventing type 1 diabetes by oral administration of insulin” (AutoImmune Inc., priority 1995, dated 1998).
Several values for one entry are separate records, joined by “and”; a condition that tells them apart may be missing. Equal entries are not always repeated. Entries after “also recorded” stand apart in the source; their conditions may differ.

What was measured:
Type in all cases: in vivo
[1] = system: NOD mice; test: Glucose post oral insulin in fasting 7 week NOD mice (Example 2); settings: for blood glucose over the next 24 hours / blood glucose change after feeding (protein load) / drop in blood glucose after feeding: 1 mg oral; for blood glucose over the next 24 hours: animals in fasting state
Method: In order to determine whether any endocrinologic (i.e. direct lowering of blood sugar) effects occurred following the feeding of insulin, 7 week old NOD mice (5 mice per group) were fed 1 mg of porcine insulin or 1 mg of myelin basic protein (obtained from Pel Freez, Rogers, Ark.) as a control protein. Blood glucose was then measured over the next 24 hour period. As a positive control, a separate group of animals were injected subcutaneously with 20 micrograms of Porcine insulin. All animals were kept in the fasting state.

[2] = system: NOD mice; test: Effect of feeding porcine insulin on spontaneous diabetes in NOD mice (Example 1)
Source text: NOD (non-obese diabetic mice) were obtained from Taconic Laboratories (Germantown, Mass.) at 4 weeks of age. There were a total of 30 animals in each of the groups mentioned below at the beginning of the experiment. At […] of age, animals were orally administered Porcine insulin (Novo Laboratories, Danbury, Conn.). Each animal received two treatments orally twice a week until 9 weeks of age. The mice were fed either saline (control) or 10 micrograms, 100 micrograms, or 1 milligram of Porcine insulin. The animals were fed (gavaged) with an 18 gauge ball-point needle (Popper and Sons, Inc., New Hyde Park, N.Y.). Beginning at 10 weeks the animals were then fed once a week for a total of 33 weeks. Beginning at 12 weeks the urine was tested weekly for the presence of glucose using Glucosuria test tape (Eli Lilly, Indianapolis, Ind.). If an animal tested 3+ or higher on the glucose urine test, a serum sample was taken and blood glucose measured using a glucose analyzer (Beckman). If the blood glucose was 220 or higher, the animals were classified as diabetic and then sacrificed.

[3] = system: NOD mice; test: Treatment of initial stages of diabetes in NOD mice (Example 5); settings: oral and aerosol, 0 to 1 mg, hyperglycemic NOD mice
Method: Insulin (0 to 1 mg as in Examples 1 and 2) will be administered to NOD mice which are suffering from hyperglycemia in an oral and aerosol form. The treatments will begin by weeks 12-20 of age, by which the serum glucose levels are at hyperglycemic concentrations in a certain percentage of animals prior to onset of diabetes.

[4] = system: NOD mice; test: Effect of aerosol administration of insulin on diabetes in NOD mice (Example 4); settings: aerosol by nebulizer, 0 to 1 mg
Method: Insulin (0 to 1 mg as in Examples 1 and 2) will be administered to NOD mice as described above in Examples 1 and 2 except in aerosol form by nebulizer.

[5] = system: NOD mice; test: Insulitis in insulin-fed NOD mice (preliminary experiments); settings: fed 1 mg insulin vs PBS-fed NOD mice, data not shown
Source text: Therefore, oral administration of insulin to NOD mice appeared to be affecting the infiltration of immune system cells into the pancreas and thus halting disease progression by preserving beta cell function.

[6] = 20 micrograms porcine insulin subcutaneously, fasting 7 week NOD mice

| Substance | endocrinologic (metabolic) effects ([1]; 1 mg oral insulin, NOD mice) | blood glucose over the next 24 hours [1] | blood glucose change after feeding (protein load) ([1]; fasting 7 week NOD mice) | drop in blood glucose after feeding ([1]; fasting 7 week NOD mice) | decrease in the glucose level [1, 6] | period over which glucose decrease persisted [1, 6] | development of diabetes ([2]; NOD mice fed 1 mg porcine insulin orally, diabetic = blood glucose 220 or higher) | development of diabetes ([2]; NOD mice fed 10 micrograms porcine insulin orally) | development of diabetes ([2]; NOD mice fed 100 micrograms porcine insulin orally) | incidence of diabetes ([2]; all doses of orally administered insulin tested (10 micrograms to 1 mg)) | blood sugar on 10 representative animals ([2]; fed 1 mg insulin, none diabetic, individual animals) | blood sugar in animals which developed diabetes ([2]; fed 10 micrograms of insulin, individual animals) | blood sugar in animals that became diabetic ([2]; fed 100 micrograms of insulin, individual animals) | beta cell function [3] | serum glucose concentrations [3] | prevention of manifestation of symptoms (hyperglycemia) of Type 1 diabetes [4] | inflammatory immune system cells surrounding the pancreas (insulitis) [5] |
| --- | --- | --- | --- | --- | --- | --- | --- | --- | --- | --- | --- | --- | --- | --- | --- | --- | --- |
| Porcine insulin | not a metabolic effect; also recorded: no endocrinologic (metabolic) effects | gradual decrease in blood glucose | increase in blood glucose | no drop in the blood glucose | approximately 80 mg % | 4 h | none of the mice went on to develop diabetes; also recorded: no diabetes developed; also recorded: None of the animals developed diabetes | diabetes developed | diabetes developed | lower incidence of diabetes; also recorded: reduced the numbers of these mice which subsequently went on to develop diabetes | 174 mg/dl and 128 mg/dl and 125 mg/dl (2×) and 145 mg/dl and 123 mg/dl and 136 mg/dl and 155 mg/dl and 115 mg/dl and 130 mg/dl | 330 mg/dL and 420 mg/dL and 315 mg/dL and 459 mg/dL and 520 mg/dL and 487 mg/dL | 500 mg/dL and 290 mg/dL and 600 mg/dL and 450 mg/dL | preservation of beta cell function | reduction in serum glucose concentrations to near normal levels | effective in preventing the manifestation of symptoms | fewer inflammatory immune system cells surrounding the pancreas |
| myelin basic protein |  | gradual decrease in blood glucose | increase in blood glucose | no drop in the blood glucose |  |  |  |  |  |  |  |  |  |  |  |  |  |
